The text below walks through data of US20260207602A1, “EGFR INHIBITORS” (Blueprint Medicines Corporation, priority 2022, published 2026).

One assay concerns the target T1, EGFR (d746-750) (Homo sapiens, UniProt P00533, DEL746-750).
T1 construct: purchased SignalChem E10-122JG
The assay can be described thus: Biochemical EGFR inhibition assay (Caliper mobility shift), EGFR (d746-750). Conditions: biochemical Caliper mobility shift assay, EGFR Exon 19-del enzyme; read-out: Enz EGFR Exon 19-del IC50. The essentials: (§1)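 Recombinant mutant enzyme, 2.5 µM fluorescent peptide, ATP at 1.0 mM or Km, 1.0% DMSO, 25 °C. Stopped with EDTA once 10–20% of peptide was phosphorylated; apparent IC50 derived from electrophoretic product/substrate separation.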

For assay [1], the target named is intracellular phosphorylation of EGFR (Tyr1068) in PC-9 cells (Homo sapiens, UniProt P00533, DEL746-750). As to the kind of experiment: PC-9 pEGFR AlphaLISA assay. The format is cell-based. Conditions: 4 hours incubation, read-out: Phos EGFR PC9 IC50. The gist of the method: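 PC-9 cells (EGFR del746-750) in phenol-free DMEM/10% FBS, adhered overnight, then exposed to 10-point 4-fold compound dilutions for 4 h at 37 °C. Lysates assayed for pEGFR Tyr1068 by AlphaLISA SureFire Ultra; IC50 from percent pEGFR inhibition vs log concentration.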

The target of a further assay is T2, EGFR L858R (Homo sapiens, UniProt P00533, L858R).
T2 construct: purchased SignalChem E10-122BG
The assay can be described thus: Biochemical EGFR inhibition assay (Caliper mobility shift), EGFR L858R. The following applies: biochemical Caliper mobility shift assay, EGFR L858R enzyme; read-out: Enz EGFR L858R IC50. The essentials: as §1

T1 sequence (P00533 with tags, fused parts or gaps DEL746-750 limits assumed): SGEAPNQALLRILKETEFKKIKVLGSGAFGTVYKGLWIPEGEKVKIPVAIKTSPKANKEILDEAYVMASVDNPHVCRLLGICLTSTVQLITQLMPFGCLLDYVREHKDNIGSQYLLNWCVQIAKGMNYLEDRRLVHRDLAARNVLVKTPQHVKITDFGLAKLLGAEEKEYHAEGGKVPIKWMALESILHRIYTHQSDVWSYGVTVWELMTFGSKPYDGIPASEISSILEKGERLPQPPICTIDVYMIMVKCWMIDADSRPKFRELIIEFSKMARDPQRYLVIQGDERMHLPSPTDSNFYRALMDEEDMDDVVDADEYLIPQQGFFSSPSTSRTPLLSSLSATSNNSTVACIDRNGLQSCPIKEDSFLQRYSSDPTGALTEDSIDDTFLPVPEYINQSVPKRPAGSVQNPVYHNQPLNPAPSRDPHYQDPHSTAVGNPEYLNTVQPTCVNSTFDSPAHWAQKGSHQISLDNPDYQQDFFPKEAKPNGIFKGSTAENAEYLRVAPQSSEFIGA
T2 sequence (P00533 25-1210 L858R): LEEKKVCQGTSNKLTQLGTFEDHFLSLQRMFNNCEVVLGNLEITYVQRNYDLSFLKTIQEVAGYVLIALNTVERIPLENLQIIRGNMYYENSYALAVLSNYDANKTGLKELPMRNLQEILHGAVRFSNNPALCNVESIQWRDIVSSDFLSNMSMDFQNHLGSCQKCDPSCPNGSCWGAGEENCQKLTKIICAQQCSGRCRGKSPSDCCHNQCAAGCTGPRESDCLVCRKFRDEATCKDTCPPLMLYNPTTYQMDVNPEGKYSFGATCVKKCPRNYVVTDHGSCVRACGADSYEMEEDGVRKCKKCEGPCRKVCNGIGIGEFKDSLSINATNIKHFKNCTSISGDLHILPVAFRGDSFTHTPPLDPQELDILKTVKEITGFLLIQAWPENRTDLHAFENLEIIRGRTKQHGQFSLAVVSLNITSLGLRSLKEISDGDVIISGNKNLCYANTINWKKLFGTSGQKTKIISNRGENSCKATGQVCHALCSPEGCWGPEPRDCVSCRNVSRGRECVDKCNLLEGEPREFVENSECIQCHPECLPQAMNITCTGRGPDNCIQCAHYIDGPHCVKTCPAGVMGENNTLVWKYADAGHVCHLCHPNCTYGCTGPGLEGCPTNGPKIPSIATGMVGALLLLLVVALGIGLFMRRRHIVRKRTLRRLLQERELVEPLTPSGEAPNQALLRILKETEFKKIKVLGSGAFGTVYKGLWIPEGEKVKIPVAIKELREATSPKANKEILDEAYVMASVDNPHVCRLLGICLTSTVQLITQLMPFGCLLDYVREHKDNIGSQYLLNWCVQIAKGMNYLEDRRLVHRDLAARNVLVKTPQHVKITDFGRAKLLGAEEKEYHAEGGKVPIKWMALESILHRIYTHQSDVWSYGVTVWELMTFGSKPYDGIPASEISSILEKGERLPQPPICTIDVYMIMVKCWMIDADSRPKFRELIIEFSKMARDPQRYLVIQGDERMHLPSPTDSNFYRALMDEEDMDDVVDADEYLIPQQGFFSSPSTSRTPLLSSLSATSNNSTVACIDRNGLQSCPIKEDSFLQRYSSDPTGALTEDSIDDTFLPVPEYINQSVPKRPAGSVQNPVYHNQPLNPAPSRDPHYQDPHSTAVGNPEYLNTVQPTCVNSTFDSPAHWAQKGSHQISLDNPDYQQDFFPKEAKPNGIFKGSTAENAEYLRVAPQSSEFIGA
intracellular phosphorylation of EGFR (Tyr1068) in PC-9 cells, sequence (P00533 with tags, fused parts or gaps DEL746-750): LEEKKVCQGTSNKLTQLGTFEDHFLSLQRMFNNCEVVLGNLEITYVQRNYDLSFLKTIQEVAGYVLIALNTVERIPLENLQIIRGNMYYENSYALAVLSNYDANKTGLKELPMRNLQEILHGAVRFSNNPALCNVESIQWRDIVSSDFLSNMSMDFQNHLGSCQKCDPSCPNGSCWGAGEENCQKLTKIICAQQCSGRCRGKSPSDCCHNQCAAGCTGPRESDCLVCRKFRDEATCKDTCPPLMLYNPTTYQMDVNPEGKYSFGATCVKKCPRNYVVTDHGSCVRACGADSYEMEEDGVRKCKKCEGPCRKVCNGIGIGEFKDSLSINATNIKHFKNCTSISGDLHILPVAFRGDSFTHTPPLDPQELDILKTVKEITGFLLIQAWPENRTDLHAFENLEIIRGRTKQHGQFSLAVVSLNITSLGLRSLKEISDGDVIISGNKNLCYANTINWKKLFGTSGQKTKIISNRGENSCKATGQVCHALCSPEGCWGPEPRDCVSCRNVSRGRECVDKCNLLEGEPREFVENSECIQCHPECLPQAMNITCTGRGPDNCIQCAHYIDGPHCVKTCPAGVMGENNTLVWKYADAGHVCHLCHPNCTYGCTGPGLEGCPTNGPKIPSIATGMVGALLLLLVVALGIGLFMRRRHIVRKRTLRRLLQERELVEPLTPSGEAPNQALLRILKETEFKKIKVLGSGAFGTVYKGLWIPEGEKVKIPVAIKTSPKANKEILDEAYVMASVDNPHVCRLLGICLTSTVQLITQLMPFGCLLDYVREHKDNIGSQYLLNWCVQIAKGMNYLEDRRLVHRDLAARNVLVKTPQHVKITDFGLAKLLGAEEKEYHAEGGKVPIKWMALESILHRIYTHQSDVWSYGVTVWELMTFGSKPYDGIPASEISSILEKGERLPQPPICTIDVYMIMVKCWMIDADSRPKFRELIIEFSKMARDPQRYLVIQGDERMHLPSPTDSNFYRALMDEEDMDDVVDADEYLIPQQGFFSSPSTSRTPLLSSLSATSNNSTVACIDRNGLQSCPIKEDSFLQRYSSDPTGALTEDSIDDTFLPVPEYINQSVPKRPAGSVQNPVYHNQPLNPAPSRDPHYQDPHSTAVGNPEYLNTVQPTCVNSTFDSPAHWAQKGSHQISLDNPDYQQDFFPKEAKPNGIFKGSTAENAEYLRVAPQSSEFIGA

For orientation: IC50 means the midpoint of a concentration-inhibition curve. For `Cn1cc(-c2cc(OC3CCN(CC(F)F)CC3)c3c(Nc4ccc5ncsc5c4F)ncnc3c2)cn1` [Example 310, N-(5-((1-(2,2-difluoroethyl)piperidin-4-yl)oxy)-7-(1-methyl-1H-pyrazol-4-yl)quinazolin-4-yl)-7-fluorobenzo[d]thiazol-6-amine], the IC50 (at EGFR (d746-750); in assay [1]; on EGFR L858R) was not above 10 nM in each case.
Take `CN(C)C1CCC(Oc2cc(-c3cnn(C)c3)cc3ncnc(Nc4ccc5ncsc5c4)c23)CC1` (stereo not drawn) [Example 21, N-(5-((4-(dimethylamino)cyclohexyl)oxy)-7-(1-methyl-1H-pyrazol-4-yl)quinazolin-4-yl)benzo[d]thiazol-6-amine]: the IC50 (on EGFR (d746-750); in assay [1]; at EGFR L858R) was not above 10 nM in each case.
With `COc1cc2ncnc(Nc3ccc4ncsc4c3)c2cc1NC(=O)C1CN(C)C1` [Example 402, N-(4-(benzo[d]thiazol-6-ylamino)-7-methoxyquinazolin-6-yl)-1-methylazetidine-3-carboxamide], the figures for the concentration for half-maximal inhibition (IC50) (on EGFR (d746-750); in assay [1]; on EGFR L858R) were 10.1 to 50 nM, 10.1 to 50 nM and more than 50.1 nM, respectively.
On to `COc1cn(C)nc1-c1cc(OC2CCN(C)CC2)c2c(Nc3ccc4ncsc4c3F)ncnc2c1` [Example 319, 7-fluoro-N-(7-(4-methoxy-1-methyl-1H-pyrazol-3-yl)-5-((1-methylpiperidin-4-yl)oxy)quinazolin-4-yl)benzo[d]thiazol-6-amine], for which the values for the IC50 (on EGFR (d746-750); in assay [1]; at EGFR L858R) were not above 10 nM, not above 10 nM and 10.1 to 50 nM, respectively.
For the compound `C[C@H]1COCC[C@H]1Oc1cc(-c2cnn(C)c2)cc2ncnc(Nc3ccc4ncsc4c3)c12` (racemic) [Example 25, cis-racemic N-(7-(1-methyl-1H-pyrazol-4-yl)-5-(((3S,4R)-3-methyltetrahydro-2H-pyran-4-yl)oxy)quinazolin-4-yl)benzo[d]thiazol-6-amine], the results for the IC50 (at EGFR (d746-750); in assay [1]; at EGFR L858R) were not above 10 nM, 10.1 to 50 nM and not above 10 nM, respectively.
In the case of `Cn1cc(-c2cc(OC3CC3)c3c(Nc4ccc5ncsc5c4)ncnc3c2)cn1` [Example 259, N-(5-cyclopropoxy-7-(1-methyl-1H-pyrazol-4-yl)quinazolin-4-yl)benzo[d]thiazol-6-amine], the half-inhibitory concentration (IC50) (on EGFR (d746-750); in assay [1]; at EGFR L858R) was not above 10 nM in each case.
Take `CN1CCC(Oc2cc(-c3cn(C)n(C(F)F)c3=O)cc3ncnc(Nc4ccc5ncsc5c4)c23)CC1` [Example A17, 4-(4-(benzo[d]thiazol-6-ylamino)-5-((1-methylpiperidin-4-yl)oxy)quinazolin-7-yl)-2-(difluoromethyl)-1-methyl-1,2-dihydro-3H-pyrazol-3-one]: the concentration for half-maximal inhibition (IC50) is not above 10 nM on EGFR (d746-750), 10.1 to 50 nM in assay [1] and 10.1 to 50 nM at EGFR L858R.
With `Cn1ccc(-c2cc3ncnc(Nc4ccc5ncsc5c4)c3cc2NC2CCNCC2)n1` [Example 266, N4-(benzo[d]thiazol-6-yl)-7-(1-methyl-1H-pyrazol-3-yl)-N6-(piperidin-4-yl)quinazoline-4,6-diamine], the half-maximal inhibitory concentration (IC50) is not above 10 nM at EGFR (d746-750), 10.1 to 50 nM in assay [1] and not above 10 nM on EGFR L858R.
Take `C[C@@H](Oc1cc(-c2cnn(C)c2)cc2ncnc(Nc3ccc4ncsc4c3)c12)C(F)F` (single isomer, unassigned) [Example 52]: the IC50 (on EGFR (d746-750); in assay [1]; at EGFR L858R) was not above 10 nM throughout.
Take `CC(C)Oc1cc(-c2cnn(C)c2)cc2ncnc(Nc3ccc4scnc4c3)c12` [Example 254, N-(5-isopropoxy-7-(1-methyl-1H-pyrazol-4-yl)quinazolin-4-yl)benzo[d]thiazol-5-amine]: the IC50 is not above 10 nM at EGFR (d746-750), 10.1 to 50 nM in assay [1] and not above 10 nM on EGFR L858R.
`C[C@@H]1CN(C)CCN1c1cc(O[C@H](C)C2COC2)c2c(Nc3ccc4ncsc4c3F)ncnc2c1` (single isomer, unassigned) [Example 107, N-(7-((R)-2,4-dimethylpiperazin-1-yl)-5-((R)-1-(oxetan-3-yl)ethoxy)quinazolin-4-yl)-7-fluorobenzo[d]thiazol-6-amine or N-(7-((R)-2,4-dimethylpiperazin-1-yl)-5-((S)-1-(oxetan-3-yl)ethoxy)quinazolin-4-yl)-7-fluorobenzo[d]thiazol-6-amine]: the values for the half-inhibitory concentration (IC50) (on EGFR (d746-750); in assay [1]; at EGFR L858R) were not above 10 nM, 10.1 to 50 nM and 10.1 to 50 nM, respectively.
As to `C[C@H](CN(C)C)Oc1cc(N2CCOCC2)cc2ncnc(Nc3ccc4ncsc4c3F)c12` [Example 183, (R)-N-(5-((1-(dimethylamino)propan-2-yl)oxy)-7-morpholinoquinazolin-4-yl)-7-fluorobenzo[d]thiazol-6-amine], the IC50 was not above 10 nM at EGFR (d746-750), 10.1 to 50 nM in assay [1] and 10.1 to 50 nM on EGFR L858R.
For `C[C@@H](Oc1c(F)c(-c2cnn(C)c2)cc2ncnc(Nc3ccc4ncsc4c3F)c12)C1COC1` (single isomer, unassigned) [Example A27], the IC50 is not above 10 nM on EGFR (d746-750), 10.1 to 50 nM in assay [1] and not above 10 nM at EGFR L858R.
On to `Cn1cc(-c2cc(OCC(=O)N3CCCCC3)c3c(Nc4ccc5ncsc5c4)ncnc3c2)cn1` [Example 272, 2-((4-(benzo[d]thiazol-6-ylamino)-7-(1-methyl-1H-pyrazol-4-yl)quinazolin-5-yl)oxy)-1-(piperidin-1-yl)ethan-1-one], for which the IC50 (at EGFR (d746-750); in assay [1]; at EGFR L858R) was not above 10 nM each time.
`Cn1cc(-c2cc(O[C@@H]3CNC[C@@H]3F)c3c(Nc4ccc5ncsc5c4)ncnc3c2)cn1` (racemic) [Example 379, N-(5-(((3R,4S)-4-fluoropyrrolidin-3-yl)oxy)-7-(1-methyl-1H-pyrazol-4-yl)quinazolin-4-yl)benzo[d]thiazol-6-amine]: the IC50 was not above 10 nM on EGFR (d746-750), more than 50.1 nM in assay [1] and 10.1 to 50 nM at EGFR L858R.
As to `COc1cc2ncnc(Nc3ccc4ncsc4c3)c2cc1-c1cnn([C@@H]2CCN(C)C[C@@H]2F)c1` (racemic) [Example 165, cis-N-(6-(1-((3R,4S)-3-fluoro-1-methylpiperidin-4-yl)-1H-pyrazol-4-yl)-7-methoxyquinazolin-4-yl)benzo[d]thiazol-6-amine], the half-maximal inhibitory concentration (IC50) (at EGFR (d746-750); in assay [1]; on EGFR L858R) was not above 10 nM in each case.
For the compound `Cn1cc(-c2cc(OCC3COC3)c3c(Nc4ccc5ncsc5c4F)ncnc3c2)cn1` [Example 13, 7-fluoro-N-(7-(1-methyl-1H-pyrazol-4-yl)-5-(oxetan-3-ylmethoxy)quinazolin-4-yl)benzo[d]thiazol-6-amine], the 50% inhibitory concentration (IC50) (at EGFR (d746-750); in assay [1]; at EGFR L858R) was not above 10 nM each time.
In the case of `COc1nn(C)cc1-c1cc(OC2CC2)c2c(Nc3ccc4ncsc4c3)ncnc2c1` [Example 77, N-(5-cyclopropoxy-7-(3-methoxy-1-methyl-1H-pyrazol-4-yl)quinazolin-4-yl)benzo[d]thiazol-6-amine], the IC50 (at EGFR (d746-750); in assay [1]; on EGFR L858R) was not above 10 nM in each case.
`Cn1cc(-c2cc(O[C@@H]3CCOC3)c3c(Nc4ccc5ncsc5c4)ncnc3c2)cn1` [Example 37, (R)-N-(7-(1-methyl-1H-pyrazol-4-yl)-5-((tetrahydrofuran-3-yl)oxy)quinazolin-4-yl)benzo[d]thiazol-6-amine]: the figures for the IC50 (on EGFR (d746-750); in assay [1]; on EGFR L858R) were not above 10 nM, 10.1 to 50 nM and not above 10 nM, respectively.
`CC[C@@H](Oc1cc(-c2cnn(C)c2)cc2ncnc(Nc3ccc4ncsc4c3F)c12)C1COC1` (single isomer, unassigned) [Example 92]: the half-inhibitory concentration (IC50) (on EGFR (d746-750); in assay [1]; on EGFR L858R) was not above 10 nM each time.
As for `C[C@@H](Oc1cc(-c2cnn(C)c2)cc2ncnc(Nc3ccc4ncsc4c3F)c12)C1CN(C)C1` (single isomer, unassigned) [Example 387], the half-maximal inhibitory concentration (IC50) (at EGFR (d746-750); in assay [1]; on EGFR L858R) was not above 10 nM in each case.
Turning to `Cn1cc(-c2cc(O[C@H]3COC[C@@H]3O)c3c(Nc4ccc5ncsc5c4)ncnc3c2)cn1` (single isomer, unassigned) [Example A30], the IC50 was not above 10 nM at EGFR (d746-750), more than 50.1 nM in assay [1] and not above 10 nM at EGFR L858R.
`CN1CCC2(COC2)[C@H](Oc2cc(-c3cnn(C)c3)cc3ncnc(Nc4ccc5ncsc5c4)c23)C1` (single isomer, unassigned) [Example 354]: the results for the IC50 (on EGFR (d746-750); in assay [1]; at EGFR L858R) were not above 10 nM, 10.1 to 50 nM and 10.1 to 50 nM, respectively.
For the compound `COc1cn(C)nc1-c1cc(OC2CCN(C)CC2)c2c(Nc3ccc4ncsc4c3)ncnc2c1` [Example 314, N-(7-(4-methoxy-1-methyl-1H-pyrazol-3-yl)-5-((1-methylpiperidin-4-yl)oxy)quinazolin-4-yl)benzo[d]thiazol-6-amine], the half-maximal inhibitory concentration (IC50) (on EGFR (d746-750); in assay [1]; on EGFR L858R) was not above 10 nM throughout.
`COC[C@@H](C)Oc1cc(N2CCN3CCC[C@@H]3C2)cc2ncnc(Nc3ccc4ncsc4c3)c12` [Example 192, N-(7-((R)-hexahydropyrrolo[1,2-a]pyrazin-2(1H)-yl)-5-(((R)-1-methoxypropan-2-yl)oxy)quinazolin-4-yl)benzo[d]thiazol-6-amine]: the values for the IC50 (at EGFR (d746-750); in assay [1]; on EGFR L858R) were not above 10 nM, 10.1 to 50 nM and not above 10 nM, respectively.
